This note sets out measurements from patent US10098842B2, “Method and a device for producing nanoparticles” (Nanoform Finland Oy, priority 2014, dated 2018).

The nature of this series: Drug release (dissolution) tests in phosphate buffer pH 7.2. The settings on record: gelatin capsule, phosphate buffer pH 7.2, 37.0° C., 400 rpm. The series is classed as physicochemical. The procedure:
Drug release tests for piroxicam nanoparticles and bulk (reference) piroxicam were done to investigate the effect of particle size on the dissolution rate. The tests were conducted in glass vials under heating (37.0±0.5° C.) and stirring (400 rpm) (H+P Labortechnik AG, Multitherm, Germany). Samples were placed in a gelatin capsule and anchored with an iron wire to prevent the capsule from surfacing. The capsule was then placed in glass vials containing phosphate buffer (50 mL; pH 7.2). Aliquots (1 mL) were taken at the time points ranging from 1 min to 48 hours. Drug release tests were conducted in triplicate. Samples were analyzed with high performance liquid chromatography (HPLC Thermo System Products, Agilent 1200 Infinity Series, Agilent Technologies, Germany) using a Discovery® C18 (Supelco Analytical, U.S.) column with guard column and a flow rate of 1 mL/min. The mobile phase was 60:40 (v/v) acetonitrile and 0.05% trifluoroacetic acid. The UV detection of piroxicam was set to 333 nm with a retention time of 2.9 min and total run time of 4 min at 30° C. A standard curve for […] quantification was made from piroxicam concentrations of 0.1-25 μg/mL (R^2=0.999).

`CN1C(C(=O)Nc2ccccn2)=C(O)c2ccccc2S1(=O)=O` [bulk piroxicam, 4-hydroxy-2-methyl-N-(2-pyridinyl)-2H-1,2-benzothiazine-3-carboxamide 1,1-dioxide]: the “dissolution rate compared with the literature (Lai et al. 2011)” value was “agreed and exceeded that reported in the literature”.
